Experimental data as given in PubChem BioAssay AID2060883 (Molecular Pharmacology Branch, DTP, NCI, 2025).
pIC50: −log10 of the molar value.

Tested on: 843782-103-R-J1-PDC complex spheroid viability
Test: Anticancer human tumor 843782-103-R-J1-PDC patient-derived lung adenocarcinoma cell line growth inhibition [RAS]
Conditions: for pIC50: curve of first compound; for viability, T/C: stronger effect = lower value
Method in brief: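 Agents were tested in combination matrices in half-log decrements from a top concentration at or near clinical Cmax (10 microM if undetermined). Targets were multi-cell spheroids of tumour lines plus HUVEC and MSC stromal cells.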
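Also: viability read after seven days of compound exposure.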

With `Nc1ccn(C2OC(CO)C(O)C2(F)F)c(=O)n1` (configuration not stated) + CCn1c(-c2cc(N3CCN(C)CC3)cnc2C(C)OC)c2c3cc(ccc31)-c1csc(n1)CC(NC(=O)C1CC1C)C(=O)N1CCCC(N1)C(=O)OCC(C)(C)C2 as the compound, how does the pIC50 (second compound 0.000949 µM) read?
The pIC50 was 7.75.

What about the pIC50 (second compound 0.003 µM) of the same compound?
Its pIC50 is 7.94.

And the pIC50 (second compound 0.00949 µM)?
The pIC50 was > 8.50.

What about the pIC50 (second compound 0.03 µM) of the same compound?
Its pIC50 is > 8.50.

And the pIC50 (second compound 0.0949 µM)?
Its pIC50 is > 8.50.

What about the pIC50 (second compound 0.3 µM) of the same compound?
The pIC50 was > 8.50.

What about the viability, T/C (second compound 0.000949 µM, first compound 0.00316 µM) of the same compound?
The viability, T/C was 83.4%.

And the viability, T/C (second compound 0.000949 µM, first compound 0.01 µM)?
Its viability, T/C is 73.4%.

And the viability, T/C (second compound 0.000949 µM, first compound 0.0316 µM)?
Its viability, T/C is 27.1%.

And the viability, T/C (second compound 0.000949 µM, first compound 0.1 µM)?
The viability, T/C was 3.62%.

What about the viability, T/C (second compound 0.000949 µM, first compound 0.316 µM) of the same compound?
The viability, T/C was 1.6%.

And the viability, T/C (second compound 0.000949 µM, first compound 1 µM)?
Its viability, T/C is 2.63%.

And the viability, T/C (second compound 0.003 µM, first compound 0.00316 µM)?
Its viability, T/C is 64.4%.

And the viability, T/C (second compound 0.003 µM, first compound 0.01 µM)?
The viability, T/C was 54%.

And the viability, T/C (second compound 0.003 µM, first compound 0.0316 µM)?
The viability, T/C was 20.3%.

What about the viability, T/C (second compound 0.003 µM, first compound 0.1 µM) of the same compound?
Its viability, T/C is 3.76%.

What about the viability, T/C (second compound 0.003 µM, first compound 0.316 µM) of the same compound?
The viability, T/C was 1.56%.

And the viability, T/C (second compound 0.003 µM, first compound 1 µM)?
The viability, T/C was 1.61%.

And the viability, T/C (second compound 0.00949 µM, first compound 0.00316 µM)?
Its viability, T/C is 37.1%.

And the viability, T/C (second compound 0.00949 µM, first compound 0.01 µM)?
Its viability, T/C is 36.2%.

What about the viability, T/C (second compound 0.00949 µM, first compound 0.0316 µM) of the same compound?
Its viability, T/C is 16.3%.

What about the viability, T/C (second compound 0.00949 µM, first compound 0.1 µM) of the same compound?
The viability, T/C was 5.56%.

And the viability, T/C (second compound 0.00949 µM, first compound 0.316 µM)?
Its viability, T/C is 2.02%.

And the viability, T/C (second compound 0.00949 µM, first compound 1 µM)?
The viability, T/C was 1.82%.

And the viability, T/C (second compound 0.03 µM, first compound 0.00316 µM)?
Its viability, T/C is 19%.

What about the viability, T/C (second compound 0.03 µM, first compound 0.01 µM) of the same compound?
The viability, T/C was 22.7%.

What about the viability, T/C (second compound 0.03 µM, first compound 0.0316 µM) of the same compound?
Its viability, T/C is 15.8%.

What about the viability, T/C (second compound 0.03 µM, first compound 0.1 µM) of the same compound?
Its viability, T/C is 7.32%.

What about the viability, T/C (second compound 0.03 µM, first compound 0.316 µM) of the same compound?
Its viability, T/C is 2.39%.

What about the viability, T/C (second compound 0.03 µM, first compound 1 µM) of the same compound?
Its viability, T/C is 1.81%.

And the viability, T/C (second compound 0.0949 µM, first compound 0.00316 µM)?
Its viability, T/C is 15.9%.

And the viability, T/C (second compound 0.0949 µM, first compound 0.01 µM)?
The viability, T/C was 18.9%.

What about the viability, T/C (second compound 0.0949 µM, first compound 0.0316 µM) of the same compound?
The viability, T/C was 13.9%.

And the viability, T/C (second compound 0.0949 µM, first compound 0.1 µM)?
The viability, T/C was 11.8%.

What about the viability, T/C (second compound 0.0949 µM, first compound 0.316 µM) of the same compound?
Its viability, T/C is 4.42%.

What about the viability, T/C (second compound 0.0949 µM, first compound 1 µM) of the same compound?
Its viability, T/C is 2.61%.

What about the viability, T/C (second compound 0.3 µM, first compound 0.00316 µM) of the same compound?
Its viability, T/C is 14.3%.

And the viability, T/C (second compound 0.3 µM, first compound 0.01 µM)?
The viability, T/C was 16.6%.

What about the viability, T/C (second compound 0.3 µM, first compound 0.0316 µM) of the same compound?
The viability, T/C was 16.6%.

And the viability, T/C (second compound 0.3 µM, first compound 0.1 µM)?
Its viability, T/C is 12.6%.

And the viability, T/C (second compound 0.3 µM, first compound 0.316 µM)?
Its viability, T/C is 7.82%.

And the viability, T/C (second compound 0.3 µM, first compound 1 µM)?
The viability, T/C was 3.72%.

Which results are given for `Cc1nc(N2CCC3(CC2)COC(C)C3N)c(CO)nc1Sc1ccnc(N)c1Cl` (configuration not stated)?
viability, T/C (compound 0.0316 µM): 105% [middle of 4 runs]; viability, T/C (compound 3.16 µM): 64.6% [middle of 4 runs]; viability, T/C (compound 10 µM): 49% [middle of 4 runs]

What does the source list for `C[C@@H](NC(=O)c1ncnc(N)c1Cl)c1ncc(C(=O)Nc2cc(C(F)(F)F)c(Cl)cn2)s1` + C=CC(=O)N1CCN(c2nc(OCC3CCCN3C)nc3c(F)c(-c4nc(N)cc(C)c4C(F)(F)F)c(Cl)cc23)C(C)C1?
pIC50 (second compound 0.00316 µM): < 5.00; pIC50 (second compound 0.01 µM): < 5.00; pIC50 (second compound 0.0316 µM): < 5.00; pIC50 (second compound 0.1 µM): < 5.00; pIC50 (second compound 0.316 µM): < 5.00; pIC50 (second compound 1 µM): < 5.00; viability, T/C (second compound 0.00316 µM, first compound 0.0316 µM): 92.2%; viability, T/C (second compound 0.00316 µM, first compound 0.1 µM): 84.3%; viability, T/C (second compound 0.00316 µM, first compound 0.316 µM): 92.1%; viability, T/C (second compound 0.00316 µM, first compound 1 µM): 91.4%; viability, T/C (second compound 0.00316 µM, first compound 3.16 µM): 106%; viability, T/C (second compound 0.00316 µM, first compound 10 µM): 84.9%; viability, T/C (second compound 0.01 µM, first compound 0.0316 µM): 85.2%; viability, T/C (second compound 0.01 µM, first compound 0.1 µM): 84.2%; viability, T/C (second compound 0.01 µM, first compound 0.316 µM): 88.4%; viability, T/C (second compound 0.01 µM, first compound 1 µM): 88.5%; viability, T/C (second compound 0.01 µM, first compound 3.16 µM): 91.9%; viability, T/C (second compound 0.01 µM, first compound 10 µM): 91.8%; viability, T/C (second compound 0.0316 µM, first compound 0.0316 µM): 87.5%; viability, T/C (second compound 0.0316 µM, first compound 0.1 µM): 79.8%; viability, T/C (second compound 0.0316 µM, first compound 0.316 µM): 87%; viability, T/C (second compound 0.0316 µM, first compound 1 µM): 84.9%; viability, T/C (second compound 0.0316 µM, first compound 3.16 µM): 94.5%; viability, T/C (second compound 0.0316 µM, first compound 10 µM): 89.1%; viability, T/C (second compound 0.1 µM, first compound 0.0316 µM): 90.7%; viability, T/C (second compound 0.1 µM, first compound 0.1 µM): 83.7%; viability, T/C (second compound 0.1 µM, first compound 0.316 µM): 87.3%; viability, T/C (second compound 0.1 µM, first compound 1 µM): 90.8%; viability, T/C (second compound 0.1 µM, first compound 3.16 µM): 91.5%; viability, T/C (second compound 0.1 µM, first compound 10 µM): 88.7%; viability, T/C (second compound 0.316 µM, first compound 0.0316 µM): 88.5%; viability, T/C (second compound 0.316 µM, first compound 0.1 µM): 87.9%; viability, T/C (second compound 0.316 µM, first compound 0.316 µM): 90.4%; viability, T/C (second compound 0.316 µM, first compound 1 µM): 86.6%; viability, T/C (second compound 0.316 µM, first compound 3.16 µM): 95.7%; viability, T/C (second compound 0.316 µM, first compound 10 µM): 91.8%; viability, T/C (second compound 1 µM, first compound 0.0316 µM): 82.7%; viability, T/C (second compound 1 µM, first compound 0.1 µM): 92.2%; viability, T/C (second compound 1 µM, first compound 0.316 µM): 97%; viability, T/C (second compound 1 µM, first compound 1 µM): 85.3%; viability, T/C (second compound 1 µM, first compound 3.16 µM): 92.5%; viability, T/C (second compound 1 µM, first compound 10 µM): 87.3%
